The source of these data is US20090022739A1, “MODULATING THE KV1.1 VOLTAGE-GATED POTASSIUM CHANNEL IN T-CELLS FOR REGULATING THE […] AND SECRETION OF TUMOR NECROSIS FACTOR ALPHA (tnf-ALPHA) AND TREATING HUMAN DISEASE OR INJURIES MEDIATED BY […] HIGH OR LOW LEVELS OF TNF-ALPHA” (priority 2005, published 2009).

One series concerns human T-cells. Particulars: data not shown.
Another series concerns normal human T-cells. The format is cell-based. As to the method:
Human T-Cells: Normal human T-cells were purified from peripheral blood of healthy donors as described (Levite et al, 2000; Ganor et al, 2003; Levite t al, 1998), and the resulting cell population, containing ≧90% T-cells, was suspended in RPMI medium supplemented with 10% FCS, 1% L-Glutamine and antibiotics (Biological Industries, Bet Haemek, Israel) and maintained at 2×10^6 cells/ml (37° C./5% CO2).
Determination of TNF-α, IFN-γ, IL-10 and IL-4 by ELISA: Freshly-purified normal resting human T-cells (2×10^6/ml) were incubated in 24-well plates (Costar, Corning, N.Y.) and the various channel blockers were added. […] Cytokine levels were measured in supernatants after 24 hours for TNF-α and IFN-γ and after 72 hours for IL-10 and IL-4, by quantitative sandwich ELISA (R&D, Minneapolis, Minn.), according to the manufacturer's instructions. […]
These 12 blockers were selected on the basis of their reported ability to block most types of K^+, Na^+, Ca^2+ and Cl^− channels expressed in T-cells (Deutsch et al, 1986; Lewis et al, 1995; Lewis et al, 1988; Rader et al, 1996; Freedman et al, 1995; Koo et al, 1997; Lin et al, 1993; Ishida et al, 1993; Jensen et al, 1999; Kotturi et al, 2003; Phipps et al, 1996; Verheugen et al, 1997; Levite et al, 2000; Chandy et al, 1984). The levels of TNFα secreted into the culture media were tested 24 hours later by ELISA. For positive control, the cells were exposed to the potent phorbol ester PMA, know to activate T-cells in a non-specific manner. The results are shown in FIG. 1A and represent fold increase ±SD TNF-α secretion tested in 2-3 independent experiments. Each ion channel blocker was examined in at least two independent experiments, and at several concentrations covering its effective range (see Materials and Methods). The numbers in each figure next to each blocker represent the highest molar concentration used. Statistical analysis: *P=0.0001, 0.0005, 0.0011 and 0.0005 vs. untreated for MgTX, KTX, DTX-K and PMA, respectively (Student's t-test).

The next series concerns NF-κB. Description: EMSA for nuclear NF-κB in normal human T-cells. Particulars: 100 nM DTX-K. The format is cell-based. On the procedure: EMSA for Nuclear NF-κB: Nuclear fractions from freshly-isolated normal human T-cells were collected using Nuclear Extract Kit (Active Motif, Carlsbad, Calif.), according to the manufacturer's instructions. NF-κB levels in nuclear fractions were measured using TransAM NF-κB Family Kit (Active Motif), according to the manufacturer's instructions.
In case of the TNF-α gene, the observed importance of NF-κB for the expression of the TNFα gene may depend on the cell type and the segment of the enhancer/promoter analyzed (Siebenlist et al, 1990). On these grounds, we investigated whether block of Kv1.1 channels in normal human T-cells (once again, in the complete absence of any other stimuli) can affect NF-κB. […]
Nuclear extracts were […] for several time periods, of which only 7 min is shown. The results, expressed as OD±SD, reflect the amount of NF-κB bound to nuclear NF-κB-binding sequences, as determined by commercially available EMSA. […]

In the next series the target is Kv1.1 (Homo sapiens, UniProt Q09470). Particulars: Gutman et al, 2003; cited from earlier work.

Read-outs that look alike come from different tables or passages of the source.

Chain of Kv1.1 (Q09470 whole entry): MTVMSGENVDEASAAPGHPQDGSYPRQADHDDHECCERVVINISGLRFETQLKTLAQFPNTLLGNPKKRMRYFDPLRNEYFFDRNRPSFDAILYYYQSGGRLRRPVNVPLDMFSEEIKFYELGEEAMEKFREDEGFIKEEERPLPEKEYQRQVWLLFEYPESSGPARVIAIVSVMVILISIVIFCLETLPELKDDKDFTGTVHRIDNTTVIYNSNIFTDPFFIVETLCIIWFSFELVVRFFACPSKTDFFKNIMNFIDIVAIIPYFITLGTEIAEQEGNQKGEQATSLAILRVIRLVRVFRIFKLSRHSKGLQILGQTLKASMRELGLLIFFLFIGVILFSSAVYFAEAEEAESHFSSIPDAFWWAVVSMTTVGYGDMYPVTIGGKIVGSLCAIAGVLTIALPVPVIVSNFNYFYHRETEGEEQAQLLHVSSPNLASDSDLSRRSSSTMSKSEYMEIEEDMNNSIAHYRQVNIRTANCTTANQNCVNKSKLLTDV

Consider “Dendrotoxin-K (AAKYCKLPLRIGPCKRKIPSFYYKWKAKQCLPFDYSGCGGNANRFKTIEECRRTCVG) [DTX-K]”, for which the “effect on cell survival or proliferation” value with human T-cells was “no significant effect”. In the series on normal human T-cells (100 nM DTX-K, 24 hours, FIG. 2B), the IFN-γ secretion result is on record as “not affecting”. The TNFα secretion result in the series on normal human T-cells (100 nM DTX-K, 24 hr, FIG. 2A) is listed as “elevated”. Besides, the IL-10 secretion result with normal human T-cells (100 nM DTX-K, 72 hours, FIG. 2C) is recorded as “not affecting”. Further, the IL-4 secretion result in the series on normal human T-cells (100 nM DTX-K, 72 hours, FIG. 2D) is “not affecting”. The “TNFα secretion, time course” value with normal human T-cells (100 nM DTX-K, after 16 hours, individuals 4 and 5) is listed as “significantly elevated”. For the same substance, the “TNF-α secretion, time course” value with normal human T-cells (100 nM DTX-K, after 72 hours, individuals 4 and 5) was “remained significantly high”. Further, the “additional elevation in TNFα levels beyond TCR-activation alone” value in the series with normal human T-cells (DTX-K either during or after TCR-activation, data not shown) is reported as “did not cause additional elevation”. Further, the “fold increase in TNFα secretion” value with normal human T-cells (FIG. 1A, 24 hours, DTX-K 100 nM, other blockers at highest concentration used, no other stimulus) is on record as 33.4 fold increase; with normal human T-cells (FIG. 1B, 24 hour exposure, 100 nM DTX-K) it was 8.7 fold; in the series on normal human T-cells (FIG. 1B, 24 hour exposure, 1 μM DTX-K), 39.5 fold. For the same substance, the “fold increase TNF-α secretion” value with normal human T-cells (individual 1 (FIG. 1C), 24 hours, 100 nM) worked out at 22.3 fold; in the series on normal human T-cells (individual 2 (FIG. 1D), 24 hours, 100 nM), 8.7 fold; with normal human T-cells (individual 3 (FIG. 1E), 24 hours, 100 nM) it was 49.0 fold; with normal human T-cells (individual 4 (FIG. 1F), 24 hours, 100 nM), 34.4 fold; with normal human T-cells (individual 5 (FIG. 1G), 24 hours, 100 nM), 2.4 fold; in the series on normal human T-cells (individual 6 (FIG. 1H), 24 hours, 100 nM), 2.0 fold. Moreover, the “TNF-α secreted to the culture media” value in the series on normal human T-cells (individual 4 (FIG. 1F), 24 hours, 100 nM, untreated 38 pg/ml) is 1308 pg/mL. For the same substance, the “level of NF-κB present in the nuclear extracts” value with NF-κB (7 minutes, FIG. 3B) is reported as “significantly augmented”. In addition, the “elevation of nuclear NF-κB at later time points” value with NF-κB (several later time points, data not shown) was “no longer detected”. In addition, in the series with Kv1.1, the inhibition constant Ki is 0.016 nM.
